18 molecules from PMC5431086, “The Rational Design of Therapeutic Peptides for Aminopeptidase N using a Substrate-Based Approach” (Scientific Reports, 2017) can be followed below.

Starred links: 1 amine or outer side, 2 acyl side, 3 side chain; linkers in the order of their positions; H or OH if unused. Positions of bridges follow the written chain, without caps; N, C: chain ends. Residues, ends and D or L forms follow the SMILES beside them. No end group written: not given here. *: point of attachment. Suc = O=C(CCC(=O)[*:2])[*:1]; Cbz = O=C(OCc1ccccc1)*; For = O=C* Where only a bound is given, the exact number is not on record here.

T1 sequence (P15144 66-967): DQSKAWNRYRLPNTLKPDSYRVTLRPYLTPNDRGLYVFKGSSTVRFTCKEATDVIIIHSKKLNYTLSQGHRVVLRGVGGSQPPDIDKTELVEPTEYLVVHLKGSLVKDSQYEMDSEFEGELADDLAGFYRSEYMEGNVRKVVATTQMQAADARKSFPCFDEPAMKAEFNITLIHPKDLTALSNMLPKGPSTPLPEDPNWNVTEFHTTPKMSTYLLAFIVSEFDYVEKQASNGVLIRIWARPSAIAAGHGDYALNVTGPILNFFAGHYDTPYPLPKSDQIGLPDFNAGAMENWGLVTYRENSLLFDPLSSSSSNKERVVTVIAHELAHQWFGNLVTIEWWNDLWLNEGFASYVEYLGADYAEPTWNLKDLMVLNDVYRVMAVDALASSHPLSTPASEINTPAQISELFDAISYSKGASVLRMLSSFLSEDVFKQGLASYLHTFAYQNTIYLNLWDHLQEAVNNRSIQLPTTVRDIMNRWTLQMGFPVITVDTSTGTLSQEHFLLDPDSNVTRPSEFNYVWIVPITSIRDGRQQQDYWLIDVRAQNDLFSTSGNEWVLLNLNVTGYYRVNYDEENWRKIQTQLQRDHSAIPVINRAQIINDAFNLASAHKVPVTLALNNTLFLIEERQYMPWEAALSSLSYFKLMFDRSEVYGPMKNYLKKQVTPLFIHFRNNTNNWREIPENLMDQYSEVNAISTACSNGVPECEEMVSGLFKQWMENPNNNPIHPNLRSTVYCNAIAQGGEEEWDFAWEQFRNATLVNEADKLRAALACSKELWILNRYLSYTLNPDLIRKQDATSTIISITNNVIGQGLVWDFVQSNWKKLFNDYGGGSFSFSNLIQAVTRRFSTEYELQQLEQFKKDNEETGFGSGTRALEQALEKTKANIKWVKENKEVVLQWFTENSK
PSA, sequence (P07288 25-261): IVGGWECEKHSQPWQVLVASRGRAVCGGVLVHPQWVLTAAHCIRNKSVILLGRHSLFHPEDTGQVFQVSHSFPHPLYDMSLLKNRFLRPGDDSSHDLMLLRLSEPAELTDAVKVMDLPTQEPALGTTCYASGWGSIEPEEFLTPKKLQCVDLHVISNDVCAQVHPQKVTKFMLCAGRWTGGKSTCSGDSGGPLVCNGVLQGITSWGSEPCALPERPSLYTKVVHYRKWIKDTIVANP
aminopeptidase A, sequence (Q07075 whole entry, species assumed): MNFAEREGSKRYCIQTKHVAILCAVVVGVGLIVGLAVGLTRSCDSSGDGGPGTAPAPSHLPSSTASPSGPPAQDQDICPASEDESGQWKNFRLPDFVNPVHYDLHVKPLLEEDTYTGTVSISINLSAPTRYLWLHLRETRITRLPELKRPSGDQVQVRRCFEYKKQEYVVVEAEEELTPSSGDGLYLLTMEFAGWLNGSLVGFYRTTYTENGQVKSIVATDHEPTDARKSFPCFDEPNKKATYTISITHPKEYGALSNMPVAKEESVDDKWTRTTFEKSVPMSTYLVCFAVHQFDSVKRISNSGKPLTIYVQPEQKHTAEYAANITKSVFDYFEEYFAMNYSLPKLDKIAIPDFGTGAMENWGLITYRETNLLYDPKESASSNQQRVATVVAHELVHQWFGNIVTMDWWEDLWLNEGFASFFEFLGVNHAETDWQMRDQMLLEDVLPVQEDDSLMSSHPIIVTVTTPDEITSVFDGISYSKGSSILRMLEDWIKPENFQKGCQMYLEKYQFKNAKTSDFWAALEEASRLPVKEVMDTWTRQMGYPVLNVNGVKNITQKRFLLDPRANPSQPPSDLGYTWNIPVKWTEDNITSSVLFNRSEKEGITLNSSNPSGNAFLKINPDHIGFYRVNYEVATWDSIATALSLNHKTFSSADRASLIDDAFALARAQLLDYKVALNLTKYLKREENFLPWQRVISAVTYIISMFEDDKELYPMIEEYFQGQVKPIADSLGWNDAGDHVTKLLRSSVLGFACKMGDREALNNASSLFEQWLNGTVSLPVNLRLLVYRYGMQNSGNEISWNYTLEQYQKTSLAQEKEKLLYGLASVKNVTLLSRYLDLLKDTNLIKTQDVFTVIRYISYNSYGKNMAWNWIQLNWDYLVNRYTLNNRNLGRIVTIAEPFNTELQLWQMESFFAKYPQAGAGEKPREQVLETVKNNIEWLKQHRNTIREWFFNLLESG

One data set addresses T1, hAPN (aminopeptidase N) (Homo sapiens, UniProt P15144).
T1 construct: human APN ecdomain (residues 66–967) were expressed and purified as previously described; honeybee-melittin signal peptide (N); His6 (C); made in house; host or cells: insect cells
Briefly: Inhibition of cleavage of fluorogenic alanine substrate (H-Ala-AMC) by APN. The following applies: 0.1 μM APN, 100 μM H-Ala-AMC, pH 7.2, 37 °C, triplicate. Type of data set: biochemical. The protocol: Five-residue long peptides containing P1–P4′ residues from primary cleavages in the library were synthesized and tested for their ability to prevent the cleavage of a fluorogenic alanine substrate by hAPN.
The peptides used in this study were custom synthesized by AAPPTEC of Louisville, KY using traditional Fmoc solid-phase peptide synthesis. All of the peptides were purified and characterized by AAPPTEC. […] Inhibition assays were performed in triplicate in a 100 mM Tris pH 7.2, Brij 35 0.0002% w/v assay buffer at 37 °C with 0.1 μM APN and 100 μM H-Ala-AMC (fluorophore). Values were recorded by Infinite pro plate reader every 2 minutes for 30 minutes with laser parameters set for excitation at 355 nm and emission at 460 nm.
PHSPW [PHSPW] came in with a concentration for half-maximal inhibition (IC50) of 82.5 ± 9.3 µM. On the same count and under the same terms, the same measure for RDLVD [RDLVD]: > 500 µM; for SKSGQ [SKSGQ]: > 500 µM.

The data set is the same for the next values; noted with them: APN; Ki from IC50 by Cheng-Prusoff equation; 0.1 μM APN, 100 μM H-Ala-AMC.
As to `CC(=O)N[C@@H](Cc1c[nH]cn1)C(=O)N[C@@H](CO)C(=O)N1CCC[C@H]1C(=O)N[C@@H](Cc1c[nH]c2ccccc12)C(=O)O` [Ac-HSPW] (Ac-HSPW-OH; C-terminus assumed), the Ki was > 500 µM.

As for `O=C(N[C@@H](Cc1c[nH]cn1)C(=O)N[C@@H](CO)C(=O)N1CCC[C@H]1C(=O)N[C@@H](Cc1c[nH]c2ccccc12)C(=O)O)OCc1ccccc1` [Cbz-HSPW] (Cbz-HSPW-OH; C-terminus assumed), the Ki is > 500 µM. On the same count and under the same terms, the same measure for `CC(C)C[C@H](NC(=O)OCc1ccccc1)C(=O)N[C@@H](Cc1c[nH]cn1)C(=O)N[C@@H](CO)C(=O)N1CCC[C@H]1C(=O)N[C@@H](Cc1c[nH]c2ccccc12)C(=O)O` [Cbz-LHSPW] (Cbz-LHSPW-OH): > 500 µM; for `O=CN[C@@H](Cc1c[nH]cn1)C(=O)N[C@@H](CO)C(=O)N1CCC[C@H]1C(=O)N[C@@H](Cc1c[nH]c2ccccc12)C(=O)O` [For-HSPW] (For-HSPW-OH; C-terminus assumed): > 500 µM. The same measure, in the same setting: the same measure for `CC(C)C[C@H](NC=O)C(=O)N[C@@H](Cc1c[nH]cn1)C(=O)N[C@@H](CO)C(=O)N1CCC[C@H]1C(=O)N[C@@H](Cc1c[nH]c2ccccc12)C(=O)O` [For-LHSPW] (For-LHSPW-OH): > 500 µM. Same read-out and setting: the same measure for `O=C(O)CCC(=O)N[C@@H](Cc1c[nH]cn1)C(=O)N[C@@H](CO)C(=O)N1CCC[C@H]1C(=O)N[C@@H](Cc1c[nH]c2ccccc12)C(=O)O` [Suc-HSPW] (Suc-HSPW-OH; C-terminus assumed): > 500 µM; for `CC(C)C[C@H](NC(=O)CCC(=O)O)C(=O)N[C@@H](Cc1c[nH]cn1)C(=O)N[C@@H](CO)C(=O)N1CCC[C@H]1C(=O)N[C@@H](Cc1c[nH]c2ccccc12)C(=O)O` [Suc-LHSPW] (Suc-LHSPW-OH): > 500 µM; for `C[C@@H]1NC(=O)[C@H](CC(=O)O)NC(=O)[C@H](C)NC(=O)[C@@H](N)CSSC[C@@H](C(=O)O)NC(=O)[C@H](CCCCN)NC(=O)[C@H](CCCNC(=N)N)NC1=O` [cyc-ADARK] (H-CADARKC-OH; disulfide 1-7): > 500 µM. With `C[C@@H]1NC(=O)[C@@H](N)CSSC[C@@H](C(=O)O)NC(=O)[C@H](Cc2c[nH]c3ccccc23)NC(=O)[C@@H]2CCCN2C(=O)[C@H](CO)NC(=O)[C@H](Cc2c[nH]cn2)NC1=O` [cyc-AHSPW, Cys-AHSPW-Cys] (H-CAHSPWC-OH; disulfide 1-7), the Ki is > 500 µM. The same measure, in the same setting: the same measure for `CC(C)C[C@@H]1NC(=O)[C@@H](N)CSSC[C@@H](C(=O)O)NC(=O)[C@H](Cc2ccccc2)NC(=O)[C@H]([C@@H](C)O)NC(=O)[C@H](CO)NC(=O)[C@H](CC(=O)O)NC1=O` [cyc-LDSTF] (H-CLDSTFC-OH; disulfide 1-7): > 500 µM. Same read-out and setting: the same measure for `CC(C)C[C@@H]1NC(=O)[C@@H](N)CSSC[C@@H](C(=O)O)NC(=O)[C@H](Cc2c[nH]c3ccccc23)NC(=O)[C@@H]2CCCN2C(=O)[C@H](CO)NC(=O)[C@H](Cc2c[nH]cn2)NC1=O` [cyc-LHSPW, Cys-LHSPW-Cys] (H-CLHSPWC-OH; disulfide 1-7): 24.7 ± 1.4 µM; for `CC(C)C[C@@H]1NC(=O)[C@@H](N)CSSC[C@@H](C(=O)O)NC(=O)[C@@H]2CCCN2C(=O)[C@H](CO)NC(=O)[C@H](Cc2c[nH]cn2)NC1=O` [cyc-LHSP] (H-CLHSPC-OH; disulfide 1-6): 121 ± 21.4 µM. On the same count and under the same terms, the same measure for `CC(C)C[C@@H]1NC(=O)[C@@H](N)CSSC[C@@H](C(=O)O)NC(=O)[C@H](CO)NC(=O)[C@H](Cc2c[nH]cn2)NC1=O` [cyc-LHS] (H-CLHSC-OH; disulfide 1-5): > 500 µM; for `N[C@H]1CSSC[C@@H](C(=O)O)NC(=O)[C@H](Cc2c[nH]c3ccccc23)NC(=O)[C@@H]2CCCN2C(=O)[C@H](CO)NC(=O)[C@H](Cc2c[nH]cn2)NC(=O)[C@@H]2CCCN2C1=O` [cyc-PHSPW, Cys-PHSPW-Cys] (H-CPHSPWC-OH; disulfide 1-7): > 500 µM.

With Ac-LHSPW [Ac-LHSPW], the inhibitory constant (Ki) is > 500 µM.

The next data set has as its target aminopeptidase A (Homo sapiens, UniProt Q07075). Kind of data set: Protease selectivity panel, aminopeptidase A. The class given is biochemical.
Settings: not given
The protocol: (§1) Next, the specificity of the lead peptide inhibitor cyc-LHSPW was tested against a panel of cancer-associated proteases with wide-ranging substrate specificities (Fig. 5A). APN was the only protease inhibited by cyc-LHSPW with chymotrypsin, trypsin, PSA, KLK7, aminopeptidase A, and the exopeptidase FAP all having Ki values above 100 μM. Having assessed selectivity for purified APN, we next evaluated the ability of cyc-LHSPW to preferentially bind to cells that express surface APN using flow cytometry (Fig. 5B). […] The expression of cell surface-associated APN was examined in the androgen receptor negative neuroendocrine prostate cancer cell lines PC3 and DU145 using a commercially available antibody. […] The peptide was next tested on frozen PC3 and DU145 tumor xenografts sections.
(§2) Figure 5 Determining the specificity of cyc-LHSPW for APN. (A) The cyc-LHSPW peptide was specific inhibitor of APN when compared to a panel of proteases. (B) Fluorescence microscopy of frozen PC3 (left) and DU145 (right) xenograft sections with cyc-LHSPW-(Gly)4-FITC. Sections were incubated with 250 nM of cyc-LHSPW-(Gly)4-FITC overnight and then visualized. The merged fluoresence channels are cyc-LHSPW-(Gly)4-FITC (green) and nuclei (DAPI, blue). (C) Analysis of APN inhibitor binding to PC3 (left) and DU145 cells (right) by flow cytometry. […]
Regarding `CC(C)C[C@@H]1NC(=O)[C@@H](N)CSSC[C@@H](C(=O)O)NC(=O)[C@H](Cc2c[nH]c3ccccc23)NC(=O)[C@@H]2CCCN2C(=O)[C@H](CO)NC(=O)[C@H](Cc2c[nH]cn2)NC1=O` [cyc-LHSPW, Cys-LHSPW-Cys] (H-CLHSPWC-OH; disulfide 1-7), the inhibitory constant (Ki) is > 100 µM.

Another data set addresses T2, FAP (Homo sapiens, UniProt Q12884).
T2 sequence (Q12884 1-760): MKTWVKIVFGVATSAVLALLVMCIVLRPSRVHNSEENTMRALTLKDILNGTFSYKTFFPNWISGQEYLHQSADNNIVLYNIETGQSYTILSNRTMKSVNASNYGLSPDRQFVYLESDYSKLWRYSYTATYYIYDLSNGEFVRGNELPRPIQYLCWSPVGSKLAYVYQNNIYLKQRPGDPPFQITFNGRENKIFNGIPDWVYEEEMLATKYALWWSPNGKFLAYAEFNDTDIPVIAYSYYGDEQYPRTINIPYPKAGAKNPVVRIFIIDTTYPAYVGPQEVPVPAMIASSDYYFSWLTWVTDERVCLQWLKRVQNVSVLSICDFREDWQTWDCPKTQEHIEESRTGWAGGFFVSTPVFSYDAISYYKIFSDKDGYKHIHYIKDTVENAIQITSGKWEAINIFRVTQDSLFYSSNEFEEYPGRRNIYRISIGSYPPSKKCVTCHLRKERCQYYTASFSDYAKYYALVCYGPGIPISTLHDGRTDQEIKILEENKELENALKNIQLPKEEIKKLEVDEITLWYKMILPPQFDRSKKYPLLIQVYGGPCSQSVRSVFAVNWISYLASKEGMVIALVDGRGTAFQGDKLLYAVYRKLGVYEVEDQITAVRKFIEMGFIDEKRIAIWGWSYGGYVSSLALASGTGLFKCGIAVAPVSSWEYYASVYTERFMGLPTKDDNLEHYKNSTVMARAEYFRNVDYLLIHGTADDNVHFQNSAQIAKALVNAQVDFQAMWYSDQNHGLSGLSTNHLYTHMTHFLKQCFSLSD
Briefly: Protease selectivity panel, FAP. Type of data set: biochemical.
Settings: not given
As for the experimental part:
as §1, §2
In the case of `CC(C)C[C@@H]1NC(=O)[C@@H](N)CSSC[C@@H](C(=O)O)NC(=O)[C@H](Cc2c[nH]c3ccccc23)NC(=O)[C@@H]2CCCN2C(=O)[C@H](CO)NC(=O)[C@H](Cc2c[nH]cn2)NC1=O` [cyc-LHSPW, Cys-LHSPW-Cys] (H-CLHSPWC-OH; disulfide 1-7), the Ki is > 100 µM.

A further data set concerns the target PSA (Homo sapiens, UniProt P07288). Briefly: Protease selectivity panel, PSA.
Settings: not given
Type of data set: biochemical. The protocol: as §1, §2
With `CC(C)C[C@@H]1NC(=O)[C@@H](N)CSSC[C@@H](C(=O)O)NC(=O)[C@H](Cc2c[nH]c3ccccc23)NC(=O)[C@@H]2CCCN2C(=O)[C@H](CO)NC(=O)[C@H](Cc2c[nH]cn2)NC1=O` [cyc-LHSPW, Cys-LHSPW-Cys] (H-CLHSPWC-OH; disulfide 1-7), the Ki is > 100 µM.

The target in a further data set is KLK7 (Homo sapiens, UniProt P49862). Briefly: Protease selectivity panel, KLK7. The class given is biochemical.
KLK7, sequence (P49862 30-253, species assumed): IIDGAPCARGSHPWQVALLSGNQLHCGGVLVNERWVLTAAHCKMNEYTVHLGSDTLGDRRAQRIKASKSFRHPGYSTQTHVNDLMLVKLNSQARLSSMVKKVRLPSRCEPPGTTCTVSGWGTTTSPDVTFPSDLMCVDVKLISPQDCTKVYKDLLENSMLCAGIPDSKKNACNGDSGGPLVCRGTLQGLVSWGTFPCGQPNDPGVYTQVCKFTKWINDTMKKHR
Settings: not given
The protocol:
as §1, §2
Take `CC(C)C[C@@H]1NC(=O)[C@@H](N)CSSC[C@@H](C(=O)O)NC(=O)[C@H](Cc2c[nH]c3ccccc23)NC(=O)[C@@H]2CCCN2C(=O)[C@H](CO)NC(=O)[C@H](Cc2c[nH]cn2)NC1=O` [cyc-LHSPW, Cys-LHSPW-Cys] (H-CLHSPWC-OH; disulfide 1-7): the inhibitory constant (Ki) is > 100 µM.

Test system in the next data set: not listed separately
Kind of data set: Toxicity study, i.v. administration. The class given is in vivo. The following applies: 40 mg/kg three time a week for four weeks (t.i.w. x4), mice. As for the experimental part:
The potential therapeutic efficacy of cyc-LHSPW was next tested in vitro using the PC3 and DU145 cell lines. […] Prior to in vivo therapeutic efficacy studies, a toxicity study was performed with the i.v. administration of cyc-LHSPW. […] Mice bearing established PC3 and DU145 xenografts were treated systemically via tail vein injection with 40 mg/kg of the tumor homing APN peptide cyc-NGR or the cyc-LHSPW peptide t.i.w. x4 (Fig. 6B). […] This therapeutic effect persisted to the end of the study with the cyc-LHSPW-treated mice having a tumor volume of 309.3 ± 92.7 mm^3 at day 35. […] PC3 tumors were removed and stained for the cellular proliferation marker Ki67.
Take `CC(C)C[C@@H]1NC(=O)[C@@H](N)CSSC[C@@H](C(=O)O)NC(=O)[C@H](Cc2c[nH]c3ccccc23)NC(=O)[C@@H]2CCCN2C(=O)[C@H](CO)NC(=O)[C@H](Cc2c[nH]cn2)NC1=O` [cyc-LHSPW, Cys-LHSPW-Cys] (H-CLHSPWC-OH; disulfide 1-7): the tolerability entry was “well tolerated, i.e. no signs of morbidity”.

The data set is the same for the next values; noted with them: multiple doses of 100 mg/kg, mice.
For the molecule `CC(C)C[C@@H]1NC(=O)[C@@H](N)CSSC[C@@H](C(=O)O)NC(=O)[C@H](Cc2c[nH]c3ccccc23)NC(=O)[C@@H]2CCCN2C(=O)[C@H](CO)NC(=O)[C@H](Cc2c[nH]cn2)NC1=O` [cyc-LHSPW, Cys-LHSPW-Cys] (H-CLHSPWC-OH; disulfide 1-7), the tolerability result is reported as “resulted in cachexia”.

The data set is the same for the next values; noted with them: single high dose of 100 mg/kg, mice.
Consider `CC(C)C[C@@H]1NC(=O)[C@@H](N)CSSC[C@@H](C(=O)O)NC(=O)[C@H](Cc2c[nH]c3ccccc23)NC(=O)[C@@H]2CCCN2C(=O)[C@H](CO)NC(=O)[C@H](Cc2c[nH]cn2)NC1=O` [cyc-LHSPW, Cys-LHSPW-Cys] (H-CLHSPWC-OH; disulfide 1-7), for which the tolerability entry is “well tolerated”.
